1 compound from patent publication US8815590B2, “Composition and method for differentiation of human embryonic stem cells” (Stem Cells for Safer Medicines Limited, priority 2009, dated 2014) can be followed below.

In one data set the test system is Human ESCs [SHEF3]. Nature of the data set: Colony morphology, RT-PCR and Western blot of OCT4/NANOG in treated human ESCs. The class given is cell-based. The procedure:
Human ESCs [SHEF3] were treated with the indicated concentrations of BIO or compound 1M or left untreated as a control and cultured for 7 days. (A) Images show typical colonies formed following the indicated treatments. The scale bars represent 1 mm. (B) Histogram plots of ESCs analysed by flow cytometry following immunostaining with antibodies against the pluripotency markers Tra-1-60 or SSEA4. (C) RNA was extracted from the cells and RT-PCR analyses performed using primers specific to the pluripotency genes OCT4 and NANOG and to the house-keeping gene β-ACTIN. (D) Western blot analysis was performed on protein extracted from the cells and immunoblotted with antibodies specific to Oct4. Blots were stripped and reprobed with anti-Gapdh antibodies to assess equal loading. (E) Compound 1O also induces differentiation of human ESCs. SHEF3 cells were treated with the indicated concentration of 1O for 7 days. Images show typical colony morphology. (F) Histogram plots of ESCs analysed by flow cytometry following staining with Tra-1-60 and SSEA4 antibodies. Analysis of percent positive cells and mean fluorescent intensity are indicated on the plots. (G) RT PCR analysis for the expression of OCT4 and NANOG. Bands for each of the genes were from the same gel with intervening samples removed. (H) Western blot analysis of OCT4 protein expression. Proteins bands were from the same immunoblot with intervening samples removed.
SHEF1 and SHEF3 human ESCs were obtained from the UKSCB and cultured as outlined in their protocols. Briefly, ESCs were maintained on mitomycin C-inactivated mouse embryonic fibroblast (MEF) feeder layers in KnockOut Dulbecco's modified Eagle's medium (KO DMEM) (Invitrogen) supplemented with 20% (vol/vol) KO serum replacement (KOSR; Invitrogen), 1 mM non-essential amino acids (NEAA; Invitrogen), 1 mM glutamine (Invitrogen), 0.1 mM 2-mercaptoethanol (BioRad), penicillin/streptomycin, and 4 ng/ml recombinant human FGF2 (Peprotech). Cultures were passage using 1 mg/ml collagenase at a ratio of 1:8 to 1:12 every 7 days. Cultures were transferred to a feeder-free, chemically defined culture system on ESC-qualified Matrigel® (BD) coated plates in mTeSR1® (Stem Cell Technologies) media according to Stem Cell Technologies' protocol.
Total RNA was isolated and purified using TRIzol Reagent (Invitrogen), following the manufacturer's instructions. All RNA samples were treated with DNase I (Ambion) before cDNA synthesis to eliminate any contaminating genomic DNA. RNA (1 μg) was reverse transcribed into cDNA using Oligo(dT)15 (Promega) and SuperScript II (Invitrogen). Gene-specific PCR was carried out using primers and annealing temperatures outlined in Table 2.
Cell lysates (20 μg) were prepared, separated by SDS-PAGE and transferred to nitrocellulose as described previously (Welham et al., 1994). Immunoblotting was carried out using primary antibodies at the following dilutions: 1:5,000 anti-Oct4 (Santa Cruz Biotechnology; sc-9081); 1:2000 anti-GAPDH (sc-20357); 1:10,000 anti-phospho (Ser33/37/Thr41) β-catenin (Cell signalling Technology; CST 9561); 1:1000 anti-β-catenin (CST 9562). Anti-rabbit antibodies conjugated to horseradish peroxidise (DAKO) were used at 1:10,000 and blots were developed using ECL Advance (GE Healthcare) or ChemiGlow (Alpha Innotech) according to manufacturer's directions. Images were captured and analysed using the ImageQuant RT ECL system (GE Healthcare). Blots were stripped and reprobed as described previously (Welham et al., 1994).
For orientation: A western blot detects proteins with antibodies after separation by electrophoresis.

Data set [1] concerns definitive endoderm derived from human ESCs. Nature of the data set: Differentiation of chemically induced DE to hepatocyte-like cells. It counts as cell-based. As to conditions: DE induction with compound, then HGF/FGF4, then HGF/FGF4/OSM/Dex. From the text: (A) Schematic representation of the differentiation protocol. (B) Images of differentiated cells at stage II (d14) and stage III (d25). (C) RT-PCR expression analyses of RNA prepared from cells at the indicated stages of differentiation, using primers specific to the genes indicated. RNA extracted from human liver was used as a positive control. β-ACTIN was used as a housekeeping gene. (D) Expression of FoxA2 and the early hepatic markers HNF4α, AFP and TTR in cells at stage II and stage III of differentiation were analyzed by immunofluorescence. Scale bar represents 50 μm. (E) Media (1 μl) from stage III (d25) cells, conditioned for 48 hours, and from a media alone (MA) control were analysed by immunoblotting with an antibody to AFP. Purified AFP and media conditioned from HUH7 cells were run as controls. (F) ELISA assay for human Albumin from stage III (d25) media. (G) Differentiation of BIO-derived DE cells to hepatocyte-like cells. SHEF3 ESCs were treated with 2 μM BIO for 5 days to induce differentiation to the DE. ESCs were then cultured under hepatic induction and maturation conditions as outlined in the Experimental Procedures and FIG. 5A. Expression of FOXA2 and the early hepatic markers HNF4α, AFP and TTR in ESCs at stage II and stage III of differentiation were analyzed by immunofluorescence. Scale bar represents 50 μm. […]

`O=C1NC(=O)C2=C1c1cn(c3ccccc13)CCOCCOCCOCCOCCn1cc2c2ccccc21` [1M]: in the data set with Human ESCs [SHEF3] (7 days treatment), the “OCT4 and NANOG gene expression (RT-PCR)” value is “loss of the pluripotency markers OCT4 and NANOG”; the “Oct4 protein expression (Western blot)” value was “loss of Oct4 protein expression”. The “Proliferation and differentiation of human ESCs (colony morphology)” value with Human ESCs [SHEF3] (7 days, on MEFs in KO DMEM or on Matrigel in mTeSR1, 1M at 2 μM) was “dramatic increase in proliferation and differentiation”. The “Potential of compound-derived DE to form hepatocyte-like cells” value in data set [1] was “has the potential to differentiate into cells with hepatocyte characteristics”.
